Source: US6723741B2, “Benzimidazoles and benzothiazoles and uses thereof” (Synaptic Pharmaceutical Corporation, priority 1996, dated 2004)
pKi: −log10 of the molar value. Like-named read-outs stand apart in the source and are kept apart here.

Tests used:
[1] = biological target: T1, human α1C adrenergic receptor (Homo sapiens, UniProt P35348); assay: Radioligand binding assay, [3H]prazosin competition; conditions: cloned human α1C (old nomenclature; = α1A), LM(tk-) cell membranes, read-out: pKi Alpha-1 C (converted)
T1 construct: expressed in transfected cells
T1 sequence (P35348 1-466): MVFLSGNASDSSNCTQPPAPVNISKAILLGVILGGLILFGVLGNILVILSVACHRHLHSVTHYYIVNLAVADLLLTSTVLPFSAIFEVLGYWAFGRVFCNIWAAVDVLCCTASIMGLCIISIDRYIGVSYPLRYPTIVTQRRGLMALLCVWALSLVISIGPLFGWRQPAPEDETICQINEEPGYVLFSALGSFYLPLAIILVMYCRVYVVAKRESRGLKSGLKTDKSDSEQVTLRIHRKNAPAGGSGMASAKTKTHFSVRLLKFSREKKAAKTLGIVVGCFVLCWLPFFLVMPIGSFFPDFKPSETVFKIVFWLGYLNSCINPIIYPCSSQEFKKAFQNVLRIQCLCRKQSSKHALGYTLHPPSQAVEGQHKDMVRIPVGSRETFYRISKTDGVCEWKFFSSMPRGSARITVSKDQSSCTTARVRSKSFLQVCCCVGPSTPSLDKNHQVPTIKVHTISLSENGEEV
Protocol: Equilibrium competition binding assays were performed with membrane preparations from cultured LM(tk^−) cells stably transfected with the cloned human alpha adrenoreceptor subtypes except for α2b, which was expressed in Y-1 cells, using [^3H] prazosin for α1 receptors and [^3H] rauwolscine for α2 receptors. Further details of pharmacological evaluations of claimed compounds are described in Example 21.
The cloned human alpha-1 adrenergic receptor subtypes referred to throughout this application as α1A, α1B, and α1C have recently been assigned new subtype designations by the IUPHAR Nomenclature Committee as outlined in the 1995 Receptor and Ion Channel Nomenclature Supplement (Watson and Girdlestone, 1995). In the new nomenclature system the cloned human α1A receptor referred to herein was given the appellation “α1D,” while the cloned human α1C receptor referred to herein was given the appellation “α1A”. However, throughout this application and the supporting tables and figures the old nomenclature will be used to describe the cloned human alpha-1 adrenergic receptor subtypes. The old nomenclature is used throughout this application because stable cell lines expressing the cloned human alpha-1 adrenergic receptors were produced and deposited with the ATCC according to the Budapest Treaty for the Deposit of Microorganisms, under designations assigned before the nomenclature change.
The entire coding region of α1C (1401 bp), including 400 basepairs of 5′ untranslated sequence (5′ UT) and 200 p of 3′ untranslated sequences (3′ UT), was cloned into the KpnI site of the polylinker-modified pCEXV-3-derived eukaryotic expression vector, EXJ.RH. The construct involved ligation three partial overlapping fragments: a 5′ 0.6 kb HincII genomic clone, a central 1.8 EcoRI hippocampal cDNA clone, and a 3′ 0.6 Kb PstI genomic clone. The hippocampal cDNA fragment overlaps with the 5′ and 3′ genomic clones so that the HincII nad PstI sites at the 5′ and 3′ ends of the cDNA clone, respectively, were utilized for ligation. This full-length clone was cloned into the KpnI site of the expression vector, using the 5′ and 3′ KpnI sites of the fragment, derived from vector (i.e., pBluescript) and 3′-untranslated sequences, respectively. Stable cell lines were produced and selected as described above.
Transfected cells from culture flasks were scraped into 5 mL of 5 mM Tris-HCl, 5 mM EDTA, pH 7.5, and lysed by sonication. The cell lysates were centrifuged at 1000 rpm for 5 min at 4° C., and the supernatant was centrifuged at 30,000×g for 20 min at 4° C. The pellet was suspended in 50 mM Tris-HCl, 1 mM MgCl2, and 0.1% Ascorbic acid at pH 7.5. Binding of α2 antagonist [^3H] rauwolscine ([…]) to membrane preparations of LM(tk−) cells was done in a final volume of 0.25 mL and incubated at 37° C. for 20 min. Nonspecific binding was determined in the presence of 10 μM phentolamine. The reaction was stopped by filtration through GF/B filters using a cell harvester.

[2] = biological target: T2, human α1B adrenergic receptor (Homo sapiens, UniProt P35368); assay: as above; conditions: for Ki: cloned human α1B, LM(tk-) cell membranes, [3H]prazosin, read-out: pKi Alpha-1 B (converted)
T2 construct: The entire coding region of α1B (1563 bp); expressed in transfected cells
T2 sequence (P35368 1-520): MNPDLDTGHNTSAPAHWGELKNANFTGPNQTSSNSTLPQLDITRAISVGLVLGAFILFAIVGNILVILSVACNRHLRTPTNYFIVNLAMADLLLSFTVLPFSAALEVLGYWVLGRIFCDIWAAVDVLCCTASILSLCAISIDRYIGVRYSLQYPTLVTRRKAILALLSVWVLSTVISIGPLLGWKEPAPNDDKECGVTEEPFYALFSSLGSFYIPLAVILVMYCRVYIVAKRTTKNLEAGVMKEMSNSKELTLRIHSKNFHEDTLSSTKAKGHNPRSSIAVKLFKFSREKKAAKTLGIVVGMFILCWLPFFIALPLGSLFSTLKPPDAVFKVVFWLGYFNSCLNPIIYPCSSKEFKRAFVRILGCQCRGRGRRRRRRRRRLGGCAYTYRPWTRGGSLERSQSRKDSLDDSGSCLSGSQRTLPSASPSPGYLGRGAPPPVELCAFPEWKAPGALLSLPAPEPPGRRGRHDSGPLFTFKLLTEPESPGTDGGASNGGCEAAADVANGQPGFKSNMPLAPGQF

[3] = biological target: T3, human α2C adrenergic receptor (Homo sapiens, UniProt P18825); assay: Radioligand binding assay, [3H]rauwolscine competition
T3 construct: The entire coding region of α2C (1383 bp), including 2 bp of 5′ UT and 400 bp of 3′ UT; expressed in transfected cells
T3 sequence (P18825 1-462): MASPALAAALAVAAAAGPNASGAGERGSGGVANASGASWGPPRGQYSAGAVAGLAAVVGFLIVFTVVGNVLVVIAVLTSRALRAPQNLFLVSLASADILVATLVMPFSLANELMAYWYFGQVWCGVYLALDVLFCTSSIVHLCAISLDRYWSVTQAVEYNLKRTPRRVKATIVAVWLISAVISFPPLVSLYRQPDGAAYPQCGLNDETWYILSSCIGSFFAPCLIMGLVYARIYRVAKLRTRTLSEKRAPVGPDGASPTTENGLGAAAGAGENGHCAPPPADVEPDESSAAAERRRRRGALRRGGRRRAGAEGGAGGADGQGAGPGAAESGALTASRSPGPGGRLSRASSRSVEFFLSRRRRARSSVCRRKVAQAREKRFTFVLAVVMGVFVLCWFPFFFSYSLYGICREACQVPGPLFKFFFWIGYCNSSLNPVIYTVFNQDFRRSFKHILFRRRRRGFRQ

Compound	Ki [1]	Ki [2]	pKi [3]	pKi [2]
Brc1cc(NC2=NCCN2)cc2cc[nH]c12 [Example 2, 7-Bromo-5-(2-imidazolin-2-ylamino)indole]	19.1 nM	26.9 nM	7.89	–
N#Cc1cc(NC2=NCCN2)cc2cc[nH]c12 [Example 5, 7-Cyano-5-(2-imidazolin-2-ylamino)indole]	1450 nM	12600 nM	7.36	–
CC(=O)c1cc(NC2=NCCN2)cc2cc[nH]c12 [Example 6, 7-Acetyl-5-(2-imidazolin-2-ylamino)indole]	186 nM	56.2 nM	6.93	–
c1nc2cc(NC3=NCCN3)ccc2s1 [Example 13, 5-(2-Imidazolin-2-ylamino)benzothiazole]	708 nM	708 nM	7.69	–
c1nc2ccc(NC3=NCCN3)cc2s1 [Example 14, 6-(2-Imidazolin-2-ylamino)benzothiazole]	2340 nM	–	–	5.44
c1nc2ccc(NC3=NCCS3)cc2s1 [Example 15, 6-(2-Thiazolin-2-ylamino)benzothiazole]	5750 nM	–	–	5.14
